The compounds below were run against unphosphorylated-BTK kinase domain (UP-BTK), GST-tagged human BTK (389-659aa) (Homo sapiens (Human), UniProt Q06187) (assay: BTK kinase Lanthascreen binding assay). Conditions: unphosphorylated-BTK kinase domain, 50 nM Tracer 236, 60 minutes; pIC50 = negative log of the IC50 in molar.
How it was run: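 Lanthascreen competition binding; test compound vs fluorescent tracer on unphosphorylated BTK. Output: pIC50 (−log IC50, M).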

unphosphorylated-BTK kinase domain (UP-BTK), GST-tagged human BTK (389-659aa), sequence (Q06187 389-659): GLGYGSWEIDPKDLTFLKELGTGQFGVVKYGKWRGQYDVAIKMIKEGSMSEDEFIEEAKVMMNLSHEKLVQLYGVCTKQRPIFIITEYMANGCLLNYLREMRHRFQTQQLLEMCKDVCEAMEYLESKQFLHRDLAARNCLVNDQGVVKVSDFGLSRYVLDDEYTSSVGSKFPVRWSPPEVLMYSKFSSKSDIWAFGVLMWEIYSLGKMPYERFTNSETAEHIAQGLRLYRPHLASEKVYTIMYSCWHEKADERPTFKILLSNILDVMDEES

Structure (SMILES)	BTK_I_binding pIC50
C=CC(=O)N1CCC[C@@H](NC(=O)c2sc3nccc4c3c2NC(=O)N4c2cncc(-c3ccccc3)c2)C1 [Example 537, (R)—N-(1-Acryloylpiperidin-3-yl)-4-oxo-5-(5-phenylpyridin-3-yl)-4,5-dihydro-3H-1-thia-3,5,8-triazaacenaphthylene-2-carboxamide]	7.6
C=CC(=O)N1CCC[C@@H](NC(=O)c2sc3nccc4c3c2NC(=O)N4c2cccc(-c3cccnc3)c2)C1 [Example 538, (R)—N-(1-Acryloylpiperidin-3-yl)-4-oxo-5-(3-(pyridin-3-yl)phenyl)-4,5-dihydro-3H-1-thia-3,5,8-triazaacenaphthylene-2-carboxamide]	7.0
C=CC(=O)N1CCC[C@@H](NC(=O)c2sc3nccc4c3c2NC(=O)N4c2cccc(-c3ccccn3)c2)C1 [Example 540, (R)—N-(1-Acryloylpiperidin-3-yl)-4-oxo-5-(3-(pyridin-2-yl)phenyl)-4,5-dihydro-3H-1-thia-3,5,8-triazaacenaphthylene-2-carboxamide]	7.2
CN(C)C/C=C/C(=O)N1CCC[C@@H](NC(=O)c2sc3nccc4c3c2NC(=O)N4c2ccc(Oc3ccccc3)c(Cl)c2)C1 [Example 541, (R,E)-5-(3-Chloro-4-phenoxyphenyl)-N-(1-(4-(dimethylamino)but-2-enoyl)piperidin-3-yl)-4-oxo-4,5-dihydro-3H-1-thia-3,5,8-triazaacenaphthylene-2-carboxamide]	7.2
CNCC(=O)N1CCC[C@@H](NC(=O)c2sc3nccc4c3c2NC(=O)N4c2ccc(Oc3ccccc3)cc2)C1 [Example 546, (R)—N-(1-(2-(Methylamino)acetyl)piperidin-3-yl)-4-oxo-5-(4-phenoxyphenyl)-4,5-dihydro-3H-1-thia-3,5,8-triazaacenaphthylene-2-carboxamide]	7.4
CNCC(=O)N1CCC[C@@H](NC(=O)c2sc3nccc4c3c2NC(=O)N4c2cccc(-c3ccccc3)c2)C1 [Example 551, (R)-5-([1,1′-Biphenyl]-3-yl)-N-(1-(2-(methylamino)acetyl)piperidin-3-yl)-4-oxo-4,5-dihydro-3H-1-thia-3,5,8-triazaacenaphthylene-2-carboxamide]	6.8
CN1CCC[C@@H](NC(=O)c2sc3nccc4c3c2NC(=O)N4c2cccc(-c3ccccc3)c2)C1 [Example 552, (R)-5-([1,1′-Biphenyl]-3-yl)-N-(1-methylpiperidin-3-yl)-4-oxo-4,5-dihydro-3H-1-thia-3,5,8-triazaacenaphthylene-2-carboxamide]	6.8
Cc1cccc(-c2cccc(N3C(=O)Nc4c(C(=O)N[C@@H]5CCCNC5)sc5nccc3c45)c2)c1 [Example 553, (R)-5-(3′-Methyl-[1,1′-biphenyl]-3-yl)-4-oxo-N-(piperidin-3-yl)-4,5-dihydro-3H-1-thia-3,5,8-triazaacenaphthylene-2-carboxamide]	6.8
Cc1ccccc1-c1cccc(N2C(=O)Nc3c(C(=O)N[C@@H]4CCCNC4)sc4nccc2c34)c1 [Example 554, (R)-5-(2′-Methyl-[1,1′-biphenyl]-3-yl)-4-oxo-N-(piperidin-3-yl)-4,5-dihydro-3H-1-thia-3,5,8-triazaacenaphthylene-2-carboxamide]	6.7
C=CC(=O)N1C[C@H](O)C[C@@H](NC(=O)c2sc3nccc4c3c2NC(=O)N4c2ccc(OC(C)C)cc2C)C1 [Example 557, N-((3R,5R)-1-Acryloyl-5-hydroxypiperidin-3-yl)-5-(4-isopropoxy-2-methylphenyl)-4-oxo-4,5-dihydro-3H-1-thia-3,5,8-triazaacenaphthylene-2-carboxamide]	7.3

Continued, values first:

BTK_I_binding pIC50	Structure (SMILES)
7.5	C=CC(=O)N1CCC[C@@H](NC(=O)c2sc3nccc4c3c2NC(=O)N4c2ccc(Oc3ccccc3)c(C)c2)C1 [Example 536, (R)—N-(1-Acryloylpiperidin-3-yl)-5-(3-methyl-4-phenoxyphenyl)-4-oxo-4,5-dihydro-3H-1-thia-3,5,8-triazaacenaphthylene-2-carboxamide]
7.5	C=CC(=O)N1C[C@H](NC(=O)c2sc3nccc4c3c2NC(=O)N4c2ccc(Oc3ccccc3)cc2)[C@@H](F)C1 [Example 543, N-((3S,4S)-1-Acryloyl-4-fluoropyrrolidin-3-yl)-4-oxo-5-(4-phenoxyphenyl)-4,5-dihydro-3H-1-thia-3,5,8-triazaacenaphthylene-2-carboxamide]
7.0	C=CC(=O)N1CC[C@H](C(=O)Nc2sc3nccc4c3c2NC(=O)N4c2ccc(Oc3ccccc3)cc2C)C1 [Example 544, (S)-1-Acryloyl-N-(5-(2-methyl-4-phenoxyphenyl)-4-oxo-4,5-dihydro-3H-1-thia-3,5,8-triazaacenaphthylen-2-yl)pyrrolidine-3-carboxamide]
6.9	C=CC(=O)N1CC[C@@H](C(=O)Nc2sc3nccc4c3c2NC(=O)N4c2ccc(Oc3ccccc3)cc2C)C1 [Example 545, (R)-1-Acryloyl-N-(5-(2-methyl-4-phenoxyphenyl)-4-oxo-4,5-dihydro-3H-1-thia-3,5,8-triazaacenaphthylen-2-yl)pyrrolidine-3-carboxamide]
7.4	Cc1cc(Oc2ccccc2)ccc1N1C(=O)Nc2c(C(=O)N[C@@H]3CCCN(C(=O)[C@@H](C)CO)C3)sc3nccc1c23 [Example 547, N—((R)-1-((S)-3-Hydroxy-2-methylpropanol)piperidin-3-yl)-5-(2-methyl-4-phenoxyphenyl)-4-oxo-4,5-dihydro-3H-1-thia-3,5,8-triazaacenaphthylene-2-carboxamide]
6.9	C=CC(=O)N1C[C@H](NC(=O)c2sc3nccc4c3c2NC(=O)N4c2ccc(Oc3ccccc3)cc2)[C@@H](OC)C1 [Example 548, N-((3S,4S)-1-Acryloyl-4-methoxypyrrolidin-3-yl)-4-oxo-5-(4-phenoxyphenyl)-4,5-dihydro-3H-1-thia-3,5,8-triazaacenaphthylene-2-carboxamide]
7.2	Cc1cc(Oc2ccccc2)ccc1N1C(=O)Nc2c(C(=O)N[C@@H]3CCCN(C(=O)/C(F)=C/CN)C3)sc3nccc1c23 [Example 549, (R,Z)—N-(1-(4-Amino-2-fluorobut-2-enoyl)piperidin-3-yl)-5-(2-methyl-4-phenoxyphenyl)-4-oxo-4,5-dihydro-3H-1-thia-3,5,8-triazaacenaphthylene-2-carboxamide]
7.3	Cc1cc(Oc2ccccc2)ccc1N1C(=O)Nc2c(C(=O)N[C@@H]3CCCN(C(=O)/C(Cl)=C/CN)C3)sc3nccc1c23 [Example 550, (R,Z)—N-(1-(4-Amino-2-chlorobut-2-enoyl)piperidin-3-yl)-5-(2-methyl-4-phenoxyphenyl)-4-oxo-4,5-dihydro-3H-1-thia-3,5,8-triazaacenaphthylene-2-carboxamide]
7.5	C=CC(=O)N1CCC[C@@H](NC(=O)c2sc3nccc4c3c2NC(=O)N4c2cnc(Oc3ccccc3)nc2)C1 [Example 556, (R)—N-(1-Acryloylpiperidin-3-yl)-4-oxo-5-(2-phenoxypyrimidin-5-yl)-4,5-dihydro-3H-1-thia-3,5,8-triazaacenaphthylene-2-carboxamide]

Source: patent US10800792B2, “Inhibitors of Bruton's tyrosine kinase and method of their use” (JANSSEN PHARMACEUTICA NV, priority 2015, dated 2020)
